Measured values from BigSolDB 2.1.

NC(=O)N/N=C/c1ccc([N+](=O)[O-])o1
solubility (mole fraction)
Conditions	in DMF	in acetone	in acetonitrile	in ethanol	in ethyl acetate	in formamide	in isopropanol	in methanol	in n-propanol	in water
278.15 K	0.0194	0.000291	7.32e-05	5.89e-05	7.69e-05	0.00131	2.66e-05	0.000137	3.6e-05	4.23e-06
283.15 K	0.0202	0.000339	9.44e-05	7.3e-05	8.31e-05	0.00154	3.27e-05	0.000168	4.98e-05	5.75e-06
288.15 K	0.0207	0.00038	0.000116	8.98e-05	9.59e-05	0.00178	4.03e-05	0.000198	5.29e-05	8.03e-06
293.15 K	0.0223	0.000435	0.000146	0.000112	0.000116	0.00205	5.09e-05	0.000238	6.62e-05	1.07e-05
298.15 K	0.023	0.000501	0.000168	0.000136	0.00013	0.0024	6.47e-05	0.000284	8.61e-05	1.27e-05
303.15 K	0.0255	0.00056	0.000204	0.000165	0.000151	0.00273	8.79e-05	0.000338	0.000108	1.53e-05
308.15 K	0.0265	0.000641	0.000246	0.000203	0.000172	0.00313	0.000116	0.000404	0.000139	2.05e-05
313.15 K	0.0279	0.000749	0.000293	0.000247	0.000202	0.00359	0.000151	0.000478	0.000164	2.68e-05
